Measurements: article PMC11251039, “Harnessing cholesterol uptake of malaria parasites for therapeutic applications” (EMBO Molecular Medicine, 2024)
Values joined by “and” are separate entries in the source; they are usually repeats but may differ in a detail not shown here. Equal entries are not always repeated. Where two headings read alike, the source gives them in different places.

Tests used:
[1] = tested on: Toxoplasma gondii tachyzoites (RH strain); assay: Toxoplasma growth inhibition assay (tdTomato fluorescence, in HFF cells); type: cell-based; details: Toxoplasma gondii, HFF, 72 h, read-out: IC50, T. gondii tachyzoite growth inhibition
Experimental: Fluorescence was measured daily with a fluorescence microplate reader for one week, and the background fluorescence from the time 0 reading was subtracted from all other measurements. […]
Toxoplasma Growth Inhibition Assays:
Growth inhibition was investigated as described previously (26). Fluorescent Toxoplasma gondii parasites were inoculated into an optical bottom 96-well plate containing confluent human foreskin fibroblast (HFF) host cells at a density of 2,000 parasites/well, with a serial dilution of each compound, or culture media/DMSO (0.1% v/v) alone. Plates were measured daily with a FluoStar Optima fluorescence plate reader at 540 nm excitation and 590 nm emission for one week, and the background fluorescence from the time 0 reading was subtracted from all other measurements. […]

[2] = tested on: P. berghei liver stages; assay: Plasmodium berghei liver stage growth inhibition assay (luminescence, in Huh7 cells); details: for P. berghei liver stage growth, dose-response data points (Figure 3A): replicate data points; for P. berghei liver stage growth, dose-response data points (Figure 3A) / Figure 3E dose-response value (replicates): listed as HJB8a53
[3] = tested on: human embryonic kidney cells (HEK293); assay: Human embryonic kidney cell viability assay (MTT); type: cell-based; details: Homo sapiens; 96 h, HEK293; read-out: IC50, human embryonic kidney cell inhibition (viability)
Outline: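 HEK293 cells, 5,000 per well, exposed to serially diluted compound for 96 hours; 10 µg/mL cycloheximide as background control. Viability by MTT (0.45 mg/mL, 2 h), SDS solubilisation, absorbance at 570 nm.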

[4] = tested on: asexual P. falciparum 3D7 wild-type parasites; assay: P. falciparum asexual growth inhibition assay (SYBR Safe DNA replication); type: cell-based, Plasmodium falciparum; details: for P. falciparum asexual growth, percentage of control: replicate values, source data Fig. 2B, listed as HJB8a53; for IC50: Plasmodium falciparum, read-out: IC50, P. falciparum asexual growth inhibition
Outline: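 Sorbitol-synchronised ring-stage cultures at 1% parasitaemia and 1% haematocrit were exposed to 2-fold compound dilutions at 37 °C under microaerophilic conditions for 24, 48 or 72 h. Growth was read by SYBR Safe fluorescence of freeze-thaw lysates, with 200 nM chloroquine or artesunate defining background.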

CC(C)OC(=O)CCC(=O)O[C@H]1CC[C@H]2[C@@H]3CC=C4C[C@@H](O)CC[C@]4(C)[C@H]3CC[C@]12C [C-17-link]
IC50 [1]: 24.2 µM | P. berghei liver stage growth, dose-response data points (Figure 3A) ([2]; 0.015241580 uM): 96.98 and 119.7 and 83.36 and 88.47 and 108.4 and 103.1 and 97.22 and 85.28 and 117.5 | P. berghei liver stage growth, dose-response data points (Figure 3A) ([2]; 0.045724740 uM): 121.9 and 106 and 104.9 and 85.8 and 115.6 and 102.5 and 72.1 and 100.2 and 87.82 | P. berghei liver stage growth, dose-response data points (Figure 3A) ([2]; 0.137174210 uM): 107.2 and 102.6 and 90.17 and 92.54 and 104.7 and 117.6 and 63.06 and 70.96 and 103.2 | Figure 3E dose-response value (replicates) ([2]; 0.292968750 uM): 91.07 and 89.1 and 95.27 and 90.14 | P. berghei liver stage growth, dose-response data points (Figure 3A) ([2]; 0.411522630 uM): 124.2 and 100.4 and 115.1 and 111.4 and 113.3 and 113.5 and 80.27 and 84.75 and 95.46 | Figure 3E dose-response value (replicates) ([2]; 0.585937500 uM): 99.86 and 89.88 and 84.85 and 85.63 and 89.93 and 92.67 and 90.44 and 102.5 and 92 and 98.72 and 111.5 and 102.9 | Figure 3E dose-response value (replicates) ([2]; 1.171875000 uM): 96.5 and 101.8 and 91.15 and 89.59 and 89.72 and 89.39 and 88.5 and 90.85 and 89.8 and 102.1 and 102.3 and 93.29 | P. berghei liver stage growth, dose-response data points (Figure 3A) ([2]; 1.234567900 uM): 118.5 and 135.5 and 116.3 and 100.4 and 96.61 and 100.7 and 64.72 and 81.15 and 106.8 | Figure 3E dose-response value (replicates) ([2]; 2.343750000 uM): 99.05 and 88.35 and 98.38 and 79.46 and 78.82 and 91.42 and 85.51 and 85.36 and 86.3 and 87.79 and 95.63 and 94.28 | P. berghei liver stage growth, dose-response data points (Figure 3A) ([2]; 3.703703700 uM): 114 and 106 (2×) and 125.3 and 90.63 and 118.1 and 93.53 and 101.3 and 118.6 | Figure 3E dose-response value (replicates) ([2]; 4.687500000 uM): 81 and 89.1 and 99.07 and 91.89 and 81.35 and 88.41 and 75.07 and 84.23 and 79.29 and 90.54 and 102.2 and 92.05 | Figure 3E dose-response value (replicates) ([2]; 9.375000000 uM): 89.91 and 74.54 and 79.38 and 86.26 and 88.67 and 93.48 and 71.57 and 72.81 and 73.33 and 83.01 and 90.9 and 81.08 | P. berghei liver stage growth, dose-response data points (Figure 3A) ([2]; 11.111111100 uM): 92.44 and 108.3 and 77.69 and 72.06 and 110.1 and 86.05 and 62.44 and 84.4 and 99.5 | Figure 3E dose-response value (replicates) ([2]; 18.750000000 uM): 68.62 and 75.11 and 71.21 and 83.74 and 80.37 and 86.75 and 49.64 and 47.74 and 45.02 and 68.49 and 77.9 and 71.84 | P. berghei liver stage growth, dose-response data points (Figure 3A) ([2]; 33.333333300 uM): 25.52 and 39.13 and 33.46 and 43.83 and 48.03 and 60.49 and 20.73 and 60.95 and 57.96 | Figure 3E dose-response value (replicates) ([2]; 37.500000000 uM): 25.13 and 30.9 and 15.88 and 48.26 and 43.84 and 49.75 and 11.26 and 13.01 and 10.8 and 38.05 and 39.89 and 41.67 | Figure 3E dose-response value (replicates) ([2]; 75.000000000 uM): 2.196 and 1.744 and 3.137 and 1.33 and 2.981 and 3.396 and -0.3545 and -0.4946 and 0.272 and 5.931 and 5.012 and 6.082 | P. berghei liver stage growth, dose-response data points (Figure 3A) ([2]; 100.000000000 uM): -0.5671 and 0.5671 and -2.836 and -0.2967 and -0.1696 and 0.5935 and 0.3513 and 0.08782 and 0.4391 | IC50 ([2]; Plasmodium berghei, Huh-7, 48 h, read-out: IC50, P. berghei liver stage growth inhibition): 29.2 µM | IC50 [3]: 43.6 µM | P. falciparum asexual growth, percentage of control ([4]; 1.562500000 uM, 24 h): 108.2% and 98.65% and 104.4% and 77.73% and 107.4% and 72.24% and 105.4% and 89.91% and 101.4% | P. falciparum asexual growth, percentage of control ([4]; 3.125000000 uM, 24 h): 87.28% and 79.93% and 102.9% and 88.97% and 110.9% and 91.2% and 98.89% and 92.59% and 99.55% | P. falciparum asexual growth, percentage of control ([4]; 6.250000000 uM, 24 h): 91.48% and 91.92% and 90.32% and 56.7% and 84% and 91.24% and 89.81% and 87.22% and 88.93% | P. falciparum asexual growth, percentage of control ([4]; 12.500000000 uM, 24 h): 92.85% and 68.5% and 79.1% and 86.73% and 62.26% and 77.95% and 77.18% and 79.4% and 77.07% | P. falciparum asexual growth, percentage of control ([4]; 25.000000000 uM, 24 h): 63.84% and 71.98% and 51.99% and 71.68% and 75.89% and 90.82% and 60.89% and 60.24% and 75.04% | P. falciparum asexual growth, percentage of control ([4]; 50.000000000 uM, 24 h): 21.83% and 36.37% and 18.23% and 26.53% and 42.29% and 44.3% and 28.27% and 41.39% and 35.03% | P. falciparum asexual growth, percentage of control ([4]; 100.000000000 uM, 24 h): 3.756% and 9.306% and -2.555% and -31.33% and 5.372% and 1.633% and -19.35% and 8.501% and 11.78% | IC50 ([4]; 3D7, 24 h, 24 h, starting at ring stages): 31.6 µM | IC50 ([4]; 3D7, 48 h, 48 h): 40.2 µM | IC50 ([4]; 3D7, 72 h, 72 h): 30.3 µM
